Paper PMC9578445, “Association of respiratory failure with inhibition of NaV1.6 in the phrenic nerve” (Channels, 2022)
Read-outs that look alike come from different tables or passages of the source.

Assays:
[1] = test system: rat diaphragm with the phrenic nerve attached; test: Rat hemisected diaphragm (HMD) assay, ex vivo
Source text: Wistar derived male or female rats weighing 450 ± 50 g were euthanized by CO2 overexposure. The diaphragm with the phrenic nerve attached was removed and placed into a tissue recording chamber containing Krebs solution pH 7.4; (composition in g/L: NaCl 6.89, KCl 0.35, CaCl2 0.277, KH2PO4 0.163, MgSO4 · 7H2O 0.296, NaHCO3 2.1 and glucose 1.8). A piece of cotton was attached to the top of the phrenic nerve over the jaw electrodes. A second piece of cotton was attached to the tip of the tendinous tissue at the apex of the diaphragm preparation for attachment to an isometric transducer under 1 g tension. The rib of the diaphragm preparation was secured to the bottom of the jaw electrodes. […] The recording chamber was placed into a water bath kept at a temperature of 32°C by means of a suitable thermoregulator consisting of a thermostat and heating elements in addition to a water circulator.
The isometric transducer was connected to an amplifier and the tissue response was recorded on a two-pen recorder set at 1 volt. Field stimulation [S48 Stimulator (GRASS) set at 0.2 Hz (12 pulses per minute), 0.5 ms pulse duration at 70% of maximum voltage (about 3 to 5 volts)] delivered to two circle platinum electrodes (0.2 cm in diameter) was applied for transmural tissue stimulation. Each tissue preparation was washed three times in Krebs solution every 15 minutes for a 60 minute equilibration period and permitted to develop contractions. D-Tubocurarine (300 µM dissolved in 0.1 mL distilled water for a final 3 µM bath concentration) was added to establish an isometrically recorded control relaxation response ranging from one to two centimeters and corresponding to 60–70% of maximal relaxation. […] The tissue was then washed periodically until the contraction returns to the baseline value.
Sixty minutes later, the test compound was added (e.g. 30 mM in 0.01 mL vehicle of 100% DMSO, for final concentration of 30 µM test compound and 0.1% DMSO). A test compound recorded relaxation response of 50% or more (≥50%) within 5 minutes, relative to the 3 µM d-Tubocurarine control response, indicates neuromuscular blocking activity.

phrenic nerve = test: Rat phrenic nerve firing assay; conditions: rat in vivo, measured at 30 minutes
Protocol: To determine direct effects on phrenic nerve activity, male CD rats were anesthetized and instrumented as described above for the CV/R assay. In addition, an incision was made in the ventral neck area and the right phrenic nerve identified anatomically and isolated via blunt dissection. The phrenic nerve was placed over a high impedance bipolar hook electrode and the nerve covered with mineral oil to prevent desiccation. Animals were mechanically ventilated via a tracheotomy (~10 mL/kg, 40–70 breaths/min, titrated individually to stabilize phrenic activity) following neuromuscular block (pancuronium 0.5–1 mg/kg, iv) and bilateral vagotomy to better define test agent effects on phrenic nerve activity. Anesthesia was verified repeatedly following pancuronium administration by testing the BP/HR response to noxious stimuli. Spontaneous electrical activity was continuously recorded and then later rectified and averaged to calculate frequency, width, peak height of bursts, and magnitude. Magnitude of the activity was calculated by taking the absolute value of the raw signal and then averaging that signal over 50 ms increments. The resulting average signal was then converted to magnitude by subtracting the […] for each phrenic burst complex. The resulting magnitude values were then averaged over 1 minute increments to result in the graphs shown. Figure S1 in the Supplemental Information illustrates this analytical procedure.
(§1) For in vivo CVR and phrenic nerve activity studies, all raw signals were amplified via general purposed biological amplifier (filter settings DC – 3-5 KhZ) then digitized, calibrated and collected at a minimum of 500 Hz (1000 Hz for ECG and 2000 Hz for cardiac electrograms, and 10 KHz for phrenic nerve activity) using Notocord-HEM data acquisition and analysis software. The raw signal was filtered following acquisition with a bandpass filter set to 200–800 Hz). Vehicle (100% dimethylformamdide, DMF) or compound formulated in the vehicle was administered as a 30-minute IV infusion at 0.0167 μL/g body weight/min. Doses were selected to achieve unbound plasma concentrations in range of measured Nav1.6 IC50 values when infused at 0.0167uL/g body weight/min based on measured rat clearance, plasma protein binding and Nav1.6 IC50. Exposure in rats was determined in separate pharmacokinetics experiments where compounds were administered via IV dosing.

[2] = Plasma exposure in rat CV/R assay; assay type: in vivo; conditions: rat, rat, IV infusion; for concentration at 15 min / concentration at 30 min: CD, plasma, iv
Source text: as §1, with “Doses were selected to achieve unbound plasma concentrations in range of measured Nav1.6 IC50 values when infused at 0.0167uL/g body weight/min based on measured rat clearance, plasma protein binding and Nav1.6 IC50.” left out

[3] = test system: anesthetized male CD rats; test: Rat Cardiovascular/Respiratory (CV/R) assay; assay type: in vivo; design: ∆ QRS Interval: unit not given here; conditions: rat, IV infusion
Protocol: Male CD Rats were anesthetized with ketamine:xylazine (85 mg/kg:5 mg/kg, im, to effect). The left femoral artery and vein were cannulated for the measurement of blood pressure and the administration of test agent, respectively. The right femoral vein was cannulated for maintenance anesthetic infusion (ketamine:xylazine ~35 mg/kg/hr:1.5 mg/kg/hr, iv, to effect). Needle electrodes were placed subcutaneously at the right axillary and left inguinal areas to record lead II ECGs. When ECG intervals were required to determine effect on cardiac conduction a pacing/recording electrode catheter was advanced through the right jugular vein to pace the heart. ECG intervals were then measured at a fixed cardiac rate of 400 beats/minute to remove any variability of intrinsic heart rate on these parameters.
To determine the test agent-dependent effect on respiratory rate, a tracheotomy was also performed using a short length of polyethylene tubing containing a thermistor (AD Instruments). The change in temperature detected by the thermistor was used to calculate respiratory rate.
as §1

[4] = Plasma exposure in phrenic nerve activity assay; assay type: in vivo; conditions: rat; for concentration at 15 min / concentration at 30 min / concentration at 10 min: CD, plasma, intravenous; for concentration at 15 min / concentration at 30 min: 10 mg/kg
Source text: as §1

[5] = male, 3 mg/kg, 3 mg/kg, read-out: Total [plasma]
[6] = male, 3 mg/kg, 3 mg/kg, read-out: Unbound [plasma]
[7] = 30 mg/kg, 11 min, just prior to death

## COc1cc2c3cc1Oc1cc(ccc1O)C[C@@H]1c4c(cc(OC)c(O)c4Oc4ccc(cc4)C[C@@H]3N(C)CC2)CC[N+]1(C)C [d-Tubocurarine, D-Tubocurarine, reference compound]
[1]; 3 μM, termed the 100% inhibition level
  relaxation, % of the maximal relaxation of the muscle: 60–70%

## O=S(=O)(Nc1ncns1)c1cc(F)c(NCC23CCCN2CCC3)cc1F [SSCI-4]
[1]; Rattus norvegicus, relative to 3 μM d-Tubocurarine relaxation = 100%
  IC50: 8.9 µM
Phrenic nerve
  percent decrease in the magnitude of the phrenic nerve signal: 50%
[2]; 10 mg/kg, 10 mg/kg, read-out: Total [plasma]
  concentration at 15 min: 31.5 µM
[2]; 10 mg/kg, 10 mg/kg, read-out: Unbound [plasma]
  concentration at 15 min: 15 µM
[2]; [5]
  concentration at 15 min: 11.4 µM
  concentration at 30 min: 17.6 µM
[2]; [6]
  concentration at 15 min: 5.4 µM
  concentration at 30 min: 8.4 µM
[2]; 10 mg/kg, 25 min, just prior to death
  Total [plasma]: 39.3a μM
[2]; [7]
  Total [plasma]: 89.7a μM
  Unbound [plasma]: 42.7a μM
[3]; 3 mg/kg, 15 min
  ∆ Heart Rate: −3.5 bpm
  ∆ Mean Arterial Pressure: 6.4 mmHg
  ∆ QRS Interval: 2.4
  ∆ respiratory rate: −24.7%
[3]; 3 mg/kg, 30 min
  ∆ Heart Rate: −5.6 bpm
  ∆ Mean Arterial Pressure: 2.4 mmHg
  ∆ QRS Interval: 4.5
  ∆ respiratory rate: −26.1%
[3]; 10 mg/kg, 15 min
  ∆ Heart Rate: 6.6 bpm
  ∆ Mean Arterial Pressure: −5.5 mmHg
  ∆ QRS Interval: 7.6
  ∆ respiratory rate: −17.8%
[3]; 10 mg/kg, 25 min
  ∆ respiratory rate: −100%
[3]; 30 mg/kg, 11 min
  ∆ respiratory rate: −100%
[4]; read-out: Total [plasma]
  concentration at 15 min: 55.3 ± 5.5 µM
  concentration at 30 min: 61.6 µM
[4]; read-out: Unbound [plasma]
  concentration at 15 min: 23.3 ± 2.61 µM
  concentration at 30 min: 29.3 µM
[4]; 30 mg/kg, read-out: Total [plasma]
  concentration at 10 min: 91.4 µM
[4]; 30 mg/kg, read-out: Unbound [plasma]
  concentration at 10 min: 43.5 µM
[4]; 30 mg/kg, 25–33 min
  Total [plasma]: 108.234 ± 9.606 µM
  Unbound [plasma]: 51.46 ± 4.56 µM
